Consider 5 compounds from patent US10227331B2 (priority 2015, dated 2019).

One series concerns the target VIM-1 (Pseudomonas aeruginosa (strain ATCC 15692 / DSM 22644 / CIP 104116 / JCM 14847 / LMG 12228 / 1C / PRS 101 / PAO1), UniProt A0A0F7KYQ8). As to the kind of experiment: biochemical. To be noted: CCF2-FA substrate, 2 hours at 25° C. In a few lines:
(§1)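 Test compound, enzyme and the FRET cephalosporin substrate CCF2-FA are incubated together for 2 hours at 25° C. Cleavage is followed by fluorescence, and IC50 values are derived from semi-logarithmic inhibition curves fitted with a 4-parameter model.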

Another series concerns the target NDM-1 (Klebsiella pneumoniae, UniProt C7C422). The experiment in a line: biochemical. Format: biochemical. To be noted: CCF2-FA substrate, 2 hours at 25° C; read-out: NDM-1 IC50. In a few lines: as §1
The next series deals with IMP-1 (Serratia marcescens, UniProt P52699). The experiment in a line: biochemical. Format: biochemical. In a few lines: as §1
The subject of series [1] is P. aeruginosa expressing IMP-1, efflux− (MB9799). As to the kind of experiment: Efflux: concentration of MBL inhibitor which restores susceptibility to imipenem. Format: cell-based, Pseudomonas aeruginosa. To be noted: imipenem at 2 μg/mL, in the presence of a class A, C, D serine β-lactamase inhibitor closely related to relebactam. An excerpt: (§2) The strain background is Pseudomonas aeruginosa PAO1.

Series [2] deals with P. aeruginosa expressing IMP-1, efflux+ (MB9798). The format is cell-based, Pseudomonas aeruginosa. To be noted: for P. aeruginosa expressing IMP-1, efflux+ (MB9798) MITC95: imipenem at 2 μg/mL, in the presence of a class A, C, D serine β-lactamase inhibitor closely related to relebactam; for Efflux ratio: ratio MITC95 PA_9798/MITC95 PA_9799.
From the text: as §2

The subject of series [3] is Serratia marcescens expressing IMP-1 (CL5741). The format is cell-based. To be noted: with imipenem 1 μg/ml, 95% inhibition of bacterial growth; for Serratia marcescens MITC95: IMP-1 (CL5741). In a few lines: (§3)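 Clinical strains grown overnight on blood agar, then diluted 1:100 in 1.1× CAMHB and exposed to test compound with imipenem at 1 μg/ml. Incubation was 22–24 h at 35° C; growth was read by absorbance to find the compound concentration restoring imipenem susceptibility.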

The subject of series [4] is Klebsiella pneumoniae expressing VIM-1 (IHMA599644). Format: cell-based. To be noted: with imipenem 1 μg/ml, 95% inhibition of bacterial growth; for Klebsiella pneumoniae MITC95: VIM-1 (IHMA599644). An outline of the steps:
as §3

Series [5] has as its system Escherichia coli expressing NDM-1 (CLB30005, CLB30016). The format is cell-based. To be noted: with imipenem 1 μg/ml, 95% inhibition of bacterial growth; for Escherichia coli MITC95: NDM-1 (CLB30016). An outline of the steps: as §3
Where [6] appears, read: CCF2-FA substrate, 2 hours at 25° C, read-out: IMP-1 IC50.

Each structure is given as a SMILES string. Like-named read-outs stand apart in the source and are kept apart here.

IMP-1, sequence (P52699 whole entry, looked up, species assumed): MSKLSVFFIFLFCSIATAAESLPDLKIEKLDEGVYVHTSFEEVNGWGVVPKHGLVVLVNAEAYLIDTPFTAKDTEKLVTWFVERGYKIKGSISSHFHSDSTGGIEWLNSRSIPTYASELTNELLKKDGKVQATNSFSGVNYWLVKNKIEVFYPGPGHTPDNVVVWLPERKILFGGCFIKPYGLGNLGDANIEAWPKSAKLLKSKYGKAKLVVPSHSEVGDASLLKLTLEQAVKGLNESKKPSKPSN
NDM-1, sequence (C7C422 whole entry, looked up, species assumed): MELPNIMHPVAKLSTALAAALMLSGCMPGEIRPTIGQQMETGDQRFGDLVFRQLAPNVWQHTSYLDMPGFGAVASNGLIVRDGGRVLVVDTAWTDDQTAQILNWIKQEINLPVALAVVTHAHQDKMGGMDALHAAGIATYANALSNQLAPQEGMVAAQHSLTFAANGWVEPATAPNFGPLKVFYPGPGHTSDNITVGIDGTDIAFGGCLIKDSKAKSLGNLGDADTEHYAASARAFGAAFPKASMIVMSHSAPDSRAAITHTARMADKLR

As usually defined, the IC50 is the concentration needed to halve the response being measured. As to `CN(C)CCS(=O)(=O)c1ccc(-c2cccc3sc(N)nc23)c(-c2nn[nH]n2)c1S(N)(=O)=O` [Example 326, 3-(2-aminobenzo[d]thiazol-4-yl)-6-((2-(dimethylamino)ethyl)sulfonyl)-2-(2H-tetrazol-5-yl)benzenesulfonamide], the IC50 against VIM-1 came out at 0.167 nM; on NDM-1 it was 0.0761 nM; at IMP-1 (setting [6]), 0.248 nM. The “P. aeruginosa expressing IMP-1, efflux− (MB9799) MITC95” value in series [1] stood at 1.563 µM. Besides, in series [2], the “P. aeruginosa expressing IMP-1, efflux+ (MB9798) MITC95” value is 1.563 µM. The Efflux ratio in series [2] is 1.00. For the same compound, the “Serratia marcescens MITC95” value in series [3] was found to be 3.125 µM. Moreover, the “Klebsiella pneumoniae MITC95” value in series [4] stood at 6.25 µM. Besides, in series [5], the “Escherichia coli MITC95” value worked out at 3.125 µM.
On to `Nc1cn2cccc(-c3ccc(S(=O)(=O)C4CNC4)c(S(N)(=O)=O)c3-c3nnn[nH]3)c2n1` [Example 65, 3-(2-Aminoimidazo[1,2-a]pyridin-8-yl)-6-(azetidin-3-ylsulfonyl)-2-(H-tetraazol-5-yl)benzenesulfonamide], for which the values for the IC50 at VIM-1, at NDM-1 and at IMP-1 (setting [6]) were 0.627 nM, 0.784 nM and 2.5 nM, respectively. Further, the “P. aeruginosa expressing IMP-1, efflux− (MB9799) MITC95” value in series [1] is 6.25 µM. In addition, the “P. aeruginosa expressing IMP-1, efflux+ (MB9798) MITC95” value in series [2] was determined as 25 µM. For the same compound, in series [2], the Efflux ratio was 4.00. Besides, in series [3], the “Serratia marcescens expressing IMP-1 (CL5741) MITC95” value was determined as 6.25 µM. Also, the “Klebsiella pneumoniae expressing VIM-1 (IHMA599644) MITC95” value in series [4] came to 12.5 µM. Also, the “Escherichia coli expressing NDM-1 (CLB30016) MITC95” value in series [5] is 1.563 µM.
Consider `NCCS(=O)(=O)c1ccc(-c2cccc(-n3ccnc3)c2)c(-c2nnn[nH]2)c1S(N)(=O)=O` [Example 345, 4-((2-Aminoethyl)sulfonyl)-3′-(1H-imidazol-1-yl)-2-(1H-tetrazol-5-yl)-[1,1′-biphenyl]-3-sulfonamide], for which the values for the IC50 against VIM-1, on NDM-1 and on IMP-1 (setting [6]) were 0.434 nM, 1.96 nM and 0.857 nM, respectively. The “P. aeruginosa expressing IMP-1, efflux− (MB9799) MITC95” value in series [1] was determined as 0.7813 µM. The “P. aeruginosa expressing IMP-1, efflux+ (MB9798) MITC95” value in series [2] amounted to 25 µM. Besides, in series [2], the Efflux ratio is 32.00. Besides, the “Serratia marcescens MITC95” value in series [3] was found to be 1.563 µM. The “Klebsiella pneumoniae MITC95” value in series [4] came out at 3.125 µM. Moreover, the “Escherichia coli MITC95” value in series [5] worked out at 0.7813 µM.
As to `Nc1nc2c(-c3ccc(S(=O)(=O)CCN4CCOCC4)c(S(N)(=O)=O)c3-c3nn[nH]n3)cccc2s1` [Example 258, 3-(2-Aminobenzo[d]thiazol-4-yl)-6-((2-morpholinoethyl)sulfonyl)-2-(2H-tetrazol-5-yl)benzenesulfonamide], the results for the IC50 on VIM-1, on NDM-1 and against IMP-1 were 0.454 nM, 0.228 nM and 0.469 nM, respectively. In series [1], the “P. aeruginosa expressing IMP-1, efflux− (MB9799) MITC95” value was determined as 6.25 µM. Further, in series [2], the “P. aeruginosa expressing IMP-1, efflux+ (MB9798) MITC95” value is 12.5 µM. Further, the Efflux ratio in series [2] came to 2.00. In addition, the “Serratia marcescens MITC95” value in series [3] was determined as 12.5 µM. The “Klebsiella pneumoniae MITC95” value in series [4] came to 25 µM. Besides, the “Escherichia coli MITC95” value in series [5] came out at 25 µM.
For the compound `NS(=O)(=O)c1c(S(=O)(=O)C2CCNCC2)ccc(-c2cccc3c2CNC3=O)c1-c1nn[nH]n1` [Example 318, 3-(1-oxoisoindolin-4-yl)-6-(piperidin-4-ylsulfonyl)-2-(2H-tetrazol-5-yl)benzenesulfonamide], the IC50 on VIM-1 was found to be 0.517 nM; on NDM-1, 1.95 nM; on IMP-1 (setting [6]) it was 27.1 nM. In series [1], the “P. aeruginosa expressing IMP-1, efflux− (MB9799) MITC95” value was 6.25 µM. In addition, the “P. aeruginosa expressing IMP-1, efflux+ (MB9798) MITC95” value in series [2] amounted to 25 µM. The Efflux ratio in series [2] came out at 4.00. The “Serratia marcescens MITC95” value in series [3] worked out at 25 µM. Besides, the “Klebsiella pneumoniae MITC95” value in series [4] amounted to 12.5 µM. Besides, in series [5], the “Escherichia coli MITC95” value was 12.5 µM.
